Measured values published in publication PMC4364445 (Chemical Science, 2015).

How the values were obtained:
[1] = test system: male rats; settings: intraperitoneal, ref [60]; cited from earlier work
[2] = test system: human organ tissue enzymes (liver, lung, intestine, kidney microsomes with or without cytosol); test: ECL enzyme/DNA array DNA damage rate, comparison across organ enzymes; settings: pH 7.4
[3] = biological target: T1, cyt P450 1A2 supersomes (Homo sapiens, UniProt P05177); test: ECL enzyme/DNA array DNA damage rate, cyt P450 1A2; type: biochemical; settings: 250 μM 2-AAF, pH 7.4; cyt P450 1A2 compared to cyt P450s 2A6, 3A5 and 1B1
T1 sequence (P05177 2-516 limits assumed): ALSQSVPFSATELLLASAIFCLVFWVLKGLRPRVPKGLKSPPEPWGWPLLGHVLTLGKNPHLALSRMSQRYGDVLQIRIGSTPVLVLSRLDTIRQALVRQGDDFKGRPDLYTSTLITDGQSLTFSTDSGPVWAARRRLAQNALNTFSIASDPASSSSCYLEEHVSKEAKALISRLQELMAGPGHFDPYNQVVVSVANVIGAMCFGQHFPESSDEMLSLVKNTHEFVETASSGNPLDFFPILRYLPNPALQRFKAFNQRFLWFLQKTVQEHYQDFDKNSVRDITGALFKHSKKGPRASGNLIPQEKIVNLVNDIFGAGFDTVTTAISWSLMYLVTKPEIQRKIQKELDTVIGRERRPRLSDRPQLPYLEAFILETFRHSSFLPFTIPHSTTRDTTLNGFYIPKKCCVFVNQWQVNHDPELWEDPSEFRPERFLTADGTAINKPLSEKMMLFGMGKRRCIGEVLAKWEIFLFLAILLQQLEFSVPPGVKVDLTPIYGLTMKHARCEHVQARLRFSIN

[4] = test system: mice; settings: dietary administration, ref [61]; cited from earlier work
[5] = test system: rodent; settings: chronic dietary exposure, ref [40],[49]; cited from earlier work
[6] = test system: human intestinal microsomes (HIM); test: Biocolloid reactor bead LC-MS/MS DNA adduct quantitation, HIM; type: biochemical; settings: 250 μM 2-AAF, 4 h; organ comparison
[7] = biological target: T2, cyt P450 1B1 supersomes (Homo sapiens, UniProt Q16678); test: ECL enzyme/DNA array DNA damage rate, cyt P450 1B1; type: biochemical; settings: pH 7.4
T2 sequence (Q16678 1-543): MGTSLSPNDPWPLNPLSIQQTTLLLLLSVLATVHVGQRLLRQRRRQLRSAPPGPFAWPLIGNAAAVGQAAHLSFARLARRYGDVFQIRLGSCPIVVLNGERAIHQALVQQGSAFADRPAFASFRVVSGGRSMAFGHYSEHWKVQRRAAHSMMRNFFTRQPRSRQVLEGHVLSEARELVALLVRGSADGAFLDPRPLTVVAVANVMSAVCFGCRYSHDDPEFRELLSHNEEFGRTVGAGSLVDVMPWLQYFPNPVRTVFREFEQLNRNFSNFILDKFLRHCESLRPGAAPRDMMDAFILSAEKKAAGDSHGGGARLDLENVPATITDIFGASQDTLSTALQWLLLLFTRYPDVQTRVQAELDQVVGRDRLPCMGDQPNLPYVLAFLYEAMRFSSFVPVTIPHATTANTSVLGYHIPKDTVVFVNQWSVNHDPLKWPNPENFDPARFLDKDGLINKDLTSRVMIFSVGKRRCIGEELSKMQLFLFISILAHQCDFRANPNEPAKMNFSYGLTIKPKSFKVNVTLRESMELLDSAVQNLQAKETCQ

[8] = test system: human organ microsomes, cytosols and cyt P450 supersomes; test: Biocolloid reactor bead LC-MS/MS DNA adducts, comparison across enzyme sources; settings: 250 μM 2-AAF, 4 h; all enzyme sources with cytosol
[9] = test system: cyt P450 supersomes (3A4, 2A6, 3A5) with or without cytosol; test: ECL enzyme/DNA array DNA damage rate, comparison across cyt P450 supersomes; type: biochemical, human; settings: 1 mM styrene, pH 7.4; supersomes + cytosol vs supersomes

Row | SMILES | DNA adduct levels, liver vs bladder [1] | order of DNA damage rates across organs (ECL array) ([2]; 250 μM 2-AAF, microsomes with cytosolic enzymes included) | relative DNA damage rate (ECL array) [3] | DNA adduct levels, bladder vs liver [4] | formation of tumors, organ order [5] | total levels of adducts 8 and 9 (LC-MS/MS) [6] | DNA damage-related activity (ECL array) ([7]; 250 μM 2-AAF) | adduct 9 in the presence of cytosol enzymes (LC-MS/MS) [8] | change of rate of DNA damage upon using microsomes and cytosol (ECL array) ([2]; 1 mM styrene, microsomes + cytosol vs microsomes) | decrease of rate of DNA damage when using cyt P450 supersomes and cytosol (ECL array) [9] [fold] | DNA damage activity (ECL array) ([7]; 1 mM styrene)
1 | CC(=O)Nc1ccc2c(c1)Cc1ccccc1-2 [2-AAF, 2-acetylaminofluorene] | higher levels of DNA adduct levels in liver than in bladder | kidney > intestine > lung > liver | significantly larger rate of DNA damage | higher DNA adduct levels in bladder than in liver | liver > intestine > kidney | highest for intestine | small | not detected |  |  | 
2 | C=Cc1ccccc1 [styrene] |  |  |  |  |  |  |  |  | halved | 10 | low activity
